Test results from patent publication US8143374B2, “Polypeptide derivatives of parathyroid hormone (PTH)” (The General Hospital Corporation, priority 2006, dated 2012).

Molecular target: T1, endogenous PTHR in ROS 17/2.8 cells (Rattus norvegicus, UniProt P25961)
T1 construct: ROS 17/2.8 cells are rat osteosarcoma cells and express the endogenous PTHR; endogenous in cells; host or cells: ROS 17/2.8 rat osteosarcoma cells
T1 sequence (P25961 27-591): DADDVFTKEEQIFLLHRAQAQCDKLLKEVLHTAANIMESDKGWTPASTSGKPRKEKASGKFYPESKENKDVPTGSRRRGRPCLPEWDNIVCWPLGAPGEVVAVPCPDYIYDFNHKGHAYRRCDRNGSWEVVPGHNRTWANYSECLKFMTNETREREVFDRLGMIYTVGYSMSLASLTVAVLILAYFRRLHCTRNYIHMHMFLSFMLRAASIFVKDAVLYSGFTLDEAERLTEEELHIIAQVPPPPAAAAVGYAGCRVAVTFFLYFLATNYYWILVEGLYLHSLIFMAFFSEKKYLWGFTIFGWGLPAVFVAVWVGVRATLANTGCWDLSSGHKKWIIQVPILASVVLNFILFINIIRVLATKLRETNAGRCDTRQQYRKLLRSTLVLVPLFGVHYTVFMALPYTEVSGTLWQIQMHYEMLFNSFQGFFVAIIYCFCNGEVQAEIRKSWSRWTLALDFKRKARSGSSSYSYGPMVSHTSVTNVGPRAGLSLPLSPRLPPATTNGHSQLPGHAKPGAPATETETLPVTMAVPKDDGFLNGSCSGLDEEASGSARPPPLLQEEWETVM
Assay: Stimulation of intracellular cAMP in ROS 17/2.8 cells
Assay type: cell-based
Experimental: Cell Culture—Cells were cultured at 37° C. in a humidified atmosphere containing 5% CO2 in Dulbecco's modified Eagle's medium (DMEM), supplemented with 10% fetal bovine serum (HyClone, Logan Utah), 100 units/ml penicillin G, and 100 ug/ml streptomycin penicillin G/streptomycin (Invitrogen Corp. Carlsbad, Calif.). For binding and cAMP studies performed with the intact PTHR, the HKRK-B7 and ROS 17/2.8 cell lines were used. HKRK-B7 cells are derived from the porcine kidney cell line LLC-PK1 and express, via stable DNA transfection, the wild-type human PTHR at an approximate surface density of 950,000 PTH-binding sites per cell. ROS 17/2.8 cells are rat osteosarcoma cells and express the endogenous PTHR at an approximate surface density of 80,000 PTH-binding sites per cell. The cells were plated and assayed in 24-well plates.
Stimulation of intracellular cAMP and inositol phosphate—The capacities of the ligands to stimulate adenylyl cyclase activity were assessed in intact ROS 17/2.8 cells, as described (Shimizu, M., (2001) Endocrinology 142:3068-3074). […] The cAMP in the thawed lysate was then quantified by radioimmuno assay. The stimulation of production of inositol phosphates (IP1+IP2+IP3) was assessed in COS-7 cells transfected with the intact human PTHR, as described previously (Shimizu, M., (2001) Endocrinology 142:3068-3074). […]

EC50: 59 ± 31 nM
Sequence: SVSEIQLMHNLGKHLNSMEEVEWLRKKLQDV [Arg^20→Glu]
